{"source": "ChEMBL document CHEMBL1201862", "about": "“PubChem BioAssay data set” (2004)", "experiment_in_all_cases": "growth of human tumour cells (NCI), 48 h", "key": {"[1]": {"test_system": "UACC-62"}, "[2]": {"test_system": "MCF7"}, "[3]": {"test_system": "KM12"}, "[4]": {"test_system": "SN12C"}, "[5]": {"test_system": "HCT-116"}, "[6]": {"test_system": "MOLT-4"}, "[7]": {"test_system": "RXF 393"}, "[8]": {"test_system": "SW-620"}, "[9]": {"test_system": "HOP-92"}, "[10]": {"test_system": "COLO 205"}, "[11]": {"test_system": "MDA-MB-435"}, "[12]": {"test_system": "EKVX"}, "[13]": {"test_system": "CAKI-1"}, "[14]": {"test_system": "MDA-MB-231"}, "[15]": {"test_system": "ACHN"}, "[16]": {"test_system": "SR"}, "[17]": {"test_system": "OVCAR-3"}, "[18]": {"test_system": "OVCAR-8"}, "[19]": {"test_system": "MDA-N"}, "[20]": {"test_system": "NCI-H226"}, "[21]": {"test_system": "SF-268"}, "[22]": {"test_system": "UACC-257"}, "[23]": {"test_system": "SK-MEL-5"}, "[24]": {"test_system": "HOP-62"}, "[25]": {"test_system": "SK-OV-3"}, "[26]": {"test_system": "M14"}, "[27]": {"test_system": "SNB-19"}, "[28]": {"test_system": "K562"}, "[29]": {"test_system": "BT-549"}, "[30]": {"test_system": "HCT-15"}, "[31]": {"test_system": "SNB-75"}, "[32]": {"test_system": "SK-MEL-28"}, "[33]": {"test_system": "U-251"}, "[34]": {"test_system": "Hs-578T"}, "[35]": {"test_system": "A498"}, "[36]": {"test_system": "HT-29"}, "[37]": {"test_system": "OVCAR-5"}, "[38]": {"test_system": "786-0"}, "[39]": {"test_system": "NCI-H522"}, "[40]": {"test_system": "NCI-H460"}, "[41]": {"test_system": "NCI-H23"}, "[42]": {"test_system": "TK-10"}, "[43]": {"test_system": "SK-MEL-2"}, "[44]": {"test_system": "NCI/ADR-RES"}, "[45]": {"test_system": "HCC 2998"}, "[46]": {"test_system": "LOX IMVI"}, "[47]": {"test_system": "DU-145"}, "[48]": {"test_system": "RPMI-8226"}, "[49]": {"test_system": "HL-60"}, "[50]": {"test_system": "PC-3"}, "[51]": {"test_system": "OVCAR-4"}, "[52]": {"test_system": "SF-295"}, "[53]": {"test_system": "SF-539"}, "[54]": {"test_system": "IGROV-1"}, "[55]": {"test_system": "A549"}, "[56]": {"test_system": "Malme-3M"}, "[57]": {"test_system": "CCRF-CEM"}, "[58]": {"test_system": "T47D"}, "[59]": {"test_system": "UO-31"}, "[60]": {"test_system": "M19-MEL"}, "[61]": {"test_system": "DMS-114"}, "[62]": {"test_system": "LXFL 529"}, "[63]": {"test_system": "KM-20L2"}}, "note": "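Five concentrations, 48 hours, 96-well plates. Abbreviation: GI50, concentration required for 50% inhibition of growth.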 Active and inactive are the calls of the source. Cut-off read from the data, not from the text of the source: active = GI50 up to about 1.1 µM and inactive = higher."}
{"smiles": "Cc1cc2c(cc1-c1cc3c(cc1C)C(C(C)C)=C(O)C(=O)/C3=C\\NCC1CCCN3CCCCC13)/C(=C/NCC1CCCN3CCCCC13)C(=O)C(O)=C2C(C)C", "note": "(configuration not stated)", "values": [{"measurement": "GI50", "setting": "[1]", "result": "7.78 µM (inactive)"}, {"measurement": "GI50", "setting": "[2]", "result": "12.4 µM (inactive)"}, {"measurement": "GI50", "setting": "[3]", "result": "5.15 µM (inactive)"}, {"measurement": "GI50", "setting": "[4]", "result": "4.82 µM (inactive)"}, {"measurement": "GI50", "setting": "[5]", "result": "4.72 µM (inactive)"}, {"measurement": "GI50", "setting": "[6]", "result": "3.52 µM (inactive)"}, {"measurement": "GI50", "setting": "[7]", "result": "5.93 µM (inactive)"}, {"measurement": "GI50", "setting": "[8]", "result": "5.48 µM (inactive)"}, {"measurement": "GI50", "setting": "[9]", "result": "15.8 µM (inactive)"}, {"measurement": "GI50", "setting": "[10]", "result": "3.47 µM (inactive)"}, {"measurement": "GI50", "setting": "[11]", "result": "7.62 µM (inactive)"}, {"measurement": "GI50", "setting": "[12]", "result": "7.98 µM (inactive)"}, {"measurement": "GI50", "setting": "[13]", "result": "3.81 µM (inactive)"}, {"measurement": "GI50", "setting": "[14]", "result": "4.16 µM (inactive)"}, {"measurement": "GI50", "setting": "[15]", "result": "3.81 µM (inactive)"}, {"measurement": "GI50", "setting": "[16]", "result": "26.2 µM (inactive)"}, {"measurement": "GI50", "setting": "[17]", "result": "3.01 µM (inactive)"}, {"measurement": "GI50", "setting": "[18]", "result": "3.61 µM (inactive)"}, {"measurement": "GI50", "setting": "[19]", "result": "5.78 µM (inactive)"}, {"measurement": "GI50", "setting": "[20]", "result": "11 µM (inactive)"}, {"measurement": "GI50", "setting": "[21]", "result": "3.85 µM (inactive)"}, {"measurement": "GI50", "setting": "[22]", "result": "15.3 µM (inactive)"}, {"measurement": "GI50", "setting": "[23]", "result": "6.75 µM (inactive)"}, {"measurement": "GI50", "setting": "[24]", "result": "4.27 µM (inactive)"}, {"measurement": "GI50", "setting": "[25]", "result": "4 µM (inactive)"}, {"measurement": "GI50", "setting": "[26]", "result": "5.02 µM (inactive)"}, {"measurement": "GI50", "setting": "[27]", "result": "7.98 µM (inactive)"}, {"measurement": "GI50", "setting": "[28]", "result": "12.2 µM (inactive)"}, {"measurement": "GI50", "setting": "[29]", "result": "15.9 µM (inactive)"}, {"measurement": "GI50", "setting": "[30]", "result": 5.33, "unit": "µM"}, {"measurement": "GI50", "setting": "[31]", "result": "8.15 µM (inactive)"}, {"measurement": "GI50", "setting": "[32]", "result": "12.1 µM (inactive)"}, {"measurement": "GI50", "setting": "[33]", "result": "2.9 µM (inactive)"}, {"measurement": "GI50", "setting": "[34]", "result": "10.2 µM (inactive)"}, {"measurement": "GI50", "setting": "[35]", "result": "23.1 µM (inactive)"}, {"measurement": "GI50", "setting": "[36]", "result": "2.47 µM (inactive)"}, {"measurement": "GI50", "setting": "[37]", "result": "10.8 µM (inactive)"}, {"measurement": "GI50", "setting": "[38]", "result": "3.02 µM (inactive)"}, {"measurement": "GI50", "setting": "[39]", "result": "2.84 µM (inactive)"}, {"measurement": "GI50", "setting": "[40]", "result": "5.14 µM (inactive)"}, {"measurement": "GI50", "setting": "[41]", "result": "6.27 µM (inactive)"}, {"measurement": "GI50", "setting": "[42]", "result": "8.36 µM (inactive)"}, {"measurement": "GI50", "setting": "[43]", "result": "8.02 µM (inactive)"}, {"measurement": "GI50", "setting": "[44]", "result": "7.36 µM (inactive)"}, {"measurement": "GI50", "setting": "[45]", "result": "17.5 µM (inactive)"}, {"measurement": "GI50", "setting": "[46]", "result": "3.35 µM (inactive)"}, {"measurement": "GI50", "setting": "[47]", "result": "11 µM (inactive)"}, {"measurement": "GI50", "setting": "[48]", "result": "11.3 µM (inactive)"}, {"measurement": "GI50", "setting": "[49]", "result": "2.97 µM (inactive)"}, {"measurement": "GI50", "setting": "[50]", "result": "5.02 µM (inactive)"}, {"measurement": "GI50", "setting": "[51]", "result": "6.79 µM (inactive)"}, {"measurement": "GI50", "setting": "[52]", "result": "6.27 µM (inactive)"}, {"measurement": "GI50", "setting": "[53]", "result": "14.9 µM (inactive)"}, {"measurement": "GI50", "setting": "[54]", "result": "5.97 µM (inactive)"}, {"measurement": "GI50", "setting": "[55]", "result": "4.93 µM (inactive)"}, {"measurement": "GI50", "setting": "[56]", "result": "10.3 µM (inactive)"}, {"measurement": "GI50", "setting": "[57]", "result": "2.83 µM (inactive)"}, {"measurement": "GI50", "setting": "[58]", "result": "8.05 µM (inactive)"}, {"measurement": "GI50", "setting": "[59]", "result": "3.43 µM (inactive)"}]}
{"smiles": "COC(=O)C1=C(C)N2CCSC2(C)C(C(=O)OC)C1c1cccc(Cl)c1", "note": "(configuration not stated)", "values": [{"measurement": "GI50", "setting": "[1]", "result": "12.8 µM (inactive)"}, {"measurement": "GI50", "setting": "[60]", "result": "16 µM (inactive)"}, {"measurement": "GI50", "setting": "[3]", "result": "18.8 µM (inactive)"}, {"measurement": "GI50", "setting": "[5]", "result": "13.6 µM (inactive)"}, {"measurement": "GI50", "setting": "[6]", "result": "14.6 µM (inactive)"}, {"measurement": "GI50", "setting": "[7]", "result": "21.9 µM (inactive)"}, {"measurement": "GI50", "setting": "[8]", "result": "37.1 µM (inactive)"}, {"measurement": "GI50", "setting": "[9]", "result": "13.4 µM (inactive)"}, {"measurement": "GI50", "setting": "[10]", "result": "18.5 µM (inactive)"}, {"measurement": "GI50", "setting": "[61]", "result": "19.8 µM (inactive)"}, {"measurement": "GI50", "setting": "[12]", "result": "12.6 µM (inactive)"}, {"measurement": "GI50", "setting": "[13]", "result": "14 µM (inactive)"}, {"measurement": "GI50", "setting": "[15]", "result": "24.8 µM (inactive)"}, {"measurement": "GI50", "setting": "[62]", "result": "20 µM (inactive)"}, {"measurement": "GI50", "setting": "[16]", "result": "15.5 µM (inactive)"}, {"measurement": "GI50", "setting": "[17]", "result": "15.6 µM (inactive)"}, {"measurement": "GI50", "setting": "[18]", "result": "22.6 µM (inactive)"}, {"measurement": "GI50", "setting": "[63]", "result": "17.5 µM (inactive)"}, {"measurement": "GI50", "setting": "[20]", "result": "19.2 µM (inactive)"}, {"measurement": "GI50", "setting": "[21]", "result": "18.7 µM (inactive)"}, {"measurement": "GI50", "setting": "[22]", "result": "4.89 µM (inactive)"}, {"measurement": "GI50", "setting": "[23]", "result": "14.5 µM (inactive)"}, {"measurement": "GI50", "setting": "[24]", "result": "18.9 µM (inactive)"}, {"measurement": "GI50", "setting": "[26]", "result": "30.1 µM (inactive)"}, {"measurement": "GI50", "setting": "[27]", "result": "16.6 µM (inactive)"}, {"measurement": "GI50", "setting": "[28]", "result": "17.5 µM (inactive)"}, {"measurement": "GI50", "setting": "[31]", "result": "10.2 µM (inactive)"}, {"measurement": "GI50", "setting": "[32]", "result": "19.1 µM (inactive)"}, {"measurement": "GI50", "setting": "[36]", "result": "16.6 µM (inactive)"}, {"measurement": "GI50", "setting": "[40]", "result": "18.8 µM (inactive)"}, {"measurement": "GI50", "setting": "[41]", "result": "20.5 µM (inactive)"}, {"measurement": "GI50", "setting": "[42]", "result": "41.9 µM (inactive)"}, {"measurement": "GI50", "setting": "[43]", "result": "17.7 µM (inactive)"}, {"measurement": "GI50", "setting": "[45]", "result": "21 µM (inactive)"}, {"measurement": "GI50", "setting": "[48]", "result": "10.3 µM (inactive)"}, {"measurement": "GI50", "setting": "[49]", "result": "12.4 µM (inactive)"}, {"measurement": "GI50", "setting": "[51]", "result": "49.7 µM (inactive)"}, {"measurement": "GI50", "setting": "[52]", "result": "13.9 µM (inactive)"}, {"measurement": "GI50", "setting": "[53]", "result": "11.5 µM (inactive)"}, {"measurement": "GI50", "setting": "[54]", "result": "20.8 µM (inactive)"}, {"measurement": "GI50", "setting": "[55]", "result": "20.4 µM (inactive)"}, {"measurement": "GI50", "setting": "[57]", "result": "23.1 µM (inactive)"}, {"measurement": "GI50", "setting": "[59]", "result": "13.2 µM (inactive)"}]}
